The term melting point denotes the temperature of the solid-liquid transition.

CYP3A4, sequence (P08684 whole entry): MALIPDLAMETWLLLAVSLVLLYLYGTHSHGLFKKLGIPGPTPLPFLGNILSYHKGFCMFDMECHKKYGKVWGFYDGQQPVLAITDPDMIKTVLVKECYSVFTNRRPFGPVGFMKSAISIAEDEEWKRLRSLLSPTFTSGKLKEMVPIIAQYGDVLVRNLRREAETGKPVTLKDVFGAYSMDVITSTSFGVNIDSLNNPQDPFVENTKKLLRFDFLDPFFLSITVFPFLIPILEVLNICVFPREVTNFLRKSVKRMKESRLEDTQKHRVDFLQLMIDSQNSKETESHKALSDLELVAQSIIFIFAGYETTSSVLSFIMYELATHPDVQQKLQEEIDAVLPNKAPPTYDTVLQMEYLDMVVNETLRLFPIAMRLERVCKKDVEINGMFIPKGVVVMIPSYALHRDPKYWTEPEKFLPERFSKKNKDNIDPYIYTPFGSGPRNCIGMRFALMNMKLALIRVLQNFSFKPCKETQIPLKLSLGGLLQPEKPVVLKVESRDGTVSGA

One data set has as its target CYP3A4 (Homo sapiens, UniProt P08684). The data set can be described thus: Measurement of CYP3A4 inhibitory activity (testosterone 6β-hydroxylation), Example 3. To be noted: CYP3A4 enzyme preparation with control microsomes, pH 7.4, probe testosterone (100 μM; 6β-hydroxylation), CYP3A4, test substance 10 μM, 100 μM testosterone, 37° C. 30 min, read-out: inhibitory rate (%) at 10 μM. Type of data set: in vitro ADME. The procedure:
10 pmol/mL CYP3A4, 100 μM testosterone, 1/10 volume of the reaction mixture of NADPH generating system and test substance (10 μM) were added to a 50 mM phosphate buffer (pH 7.4) and control microsome was added to adjust the final concentration of protein to 1.0 mg/mL. The reaction mixture was prepared and reacted at 37° C. for 30 min. (amount of total reaction solution 100 μL). The reaction was quenched by the addition of 100 μL of acetonitrile. After stirring, 100 μL of distilled water was added and the mixture was further stirred. A supernatant obtained by centrifugation (15000 rpm) for 10 min. was injected to HPLC by 80 μL and concentration of 6 β-hydroxytestosterone produced by the reaction was measured.
For preparation of the NADPH generating system, 1 volume of 50 mM NADP (β-nicotinamide adenine dinucleotide oxidized type), 1 volume of 0.5 M glucose-6 phosphate, 5 volumes of 0.1 M magnesium chloride, 1 volume of 150 unit/mL glucose-6-phosphate […] and 2 volumes of distilled water were mixed.
Regarding `CCc1nc(-c2cccc(C)c2)c(-c2ccnc(NCCCc3ccccc3)c2)s1` [D 19-4, N-[4-[2-ethyl-4-(3-methylphenyl)-1,3-thiazol-5-yl]-2-pyridyl]-N-(3-phenylpropyl)amine], the inhibition at 30 min, 10 μM is less than 30%.

As for `CCc1nc(-c2cccc(C)c2)c(-c2ccnc(F)c2)s1` [H 11, 2-ethyl-5-(2-fluoro-4-pyridyl)-4-(3-methylphenyl)-1,3-thiazole], the inhibition at 30 min, 10 μM was less than 30%.

On to `CCc1nc(-c2cccc(C)c2)c(-c2ccnc(C)c2)s1` [H 13, 2 ethyl-4 (3 methylphenyl)-5 (2 methyl-4 pyridyl)-1,3 thiazole], for which the inhibition at 30 min, 10 μM is less than 30%.

On to `CCc1nc(-c2cccc(C)c2)c(-c2ccnc(N)c2)s1` [H 22, 4-[2-ethyl-4-(3-methylphenyl)-1,3-thiazol-5-yl]-2-pyridylamine], for which the inhibition at 30 min, 10 μM was less than 30%.

In the case of `CCc1nc(-c2cccc(C)c2)c(-c2ccnc(NC(C)=O)c2)s1` [H 29-2, N-[4-[2-ethyl-4-(3-methylphenyl)-1,3-thiazol-5-yl]-2-pyridyl]acetamide], the inhibition at 30 min, 10 μM was less than 30%.

Regarding `CCc1nc(-c2cccc(C)c2)c(-c2ccnc(Cl)c2)s1` [H 69, 5 (2 chloro-4 pyridyl)-2 ethyl-4 (3 methylphenyl)-1,3-thiazole], the inhibition at 30 min, 10 μM is less than 30%.

System in the next data set: not given
Assay: not given
Conditions: not given
With `CCc1nc(-c2cccc(C)c2)c(-c2ccnc(NC(=O)c3ccc(OC)cc3)c2)s1` [L 39-2, N-[4 [2 ethyl-4 (3-methylphenyl)-1,3 thiazol-5 yl]-2 pyridyl]-4 methoxybenzamide], the melting point fell in the range of 124 to 125 °C.

The compound `CCc1nc(-c2cccc(C)c2)c(-c2ccnc(NC(=O)c3ccc(C)cc3)c2)s1` [L 39-3, N-[4 [2 ethyl-4 (3-methylphenyl)-1,3 thiazol-5 yl]-2 pyridyl]-4 methylbenzamide] displayed a melting point of 105 to 106 °C.

`CCc1nc(-c2cccc(C)c2)c(-c2ccnc(NC(=O)c3cccc(F)c3)c2)s1` [L 39-4, N-[4 [2 ethyl-4 (3-methylphenyl)-1,3 thiazol-5 yl]-2 pyridyl]-3 fluorobenzamide]: the melting point was 101 to 102 °C.

In turn, `CCc1nc(-c2cccc(C)c2)c(-c2ccnc(NC(=O)c3ccc(F)cc3)c2)s1` [L 39-5, N-[4 [2 ethyl-4 (3-methylphenyl)-1,3 thiazol-5 yl]-2 pyridyl]-4 fluorobenzamide] came in with a melting point of 110 to 111 °C.

In turn, `CCc1nc(-c2cccc(C)c2)c(-c2ccnc(NC(=O)c3cc(Cl)cc(Cl)c3)c2)s1` [L 39-6, 3,5 dichloro-N-[4 [2 ethyl-4 (3 methylphenyl)-1,3 thiazol-5 yl]-2 pyridyl]benzamide] showed a melting point of 77 to 78 °C.

On to `Cc1cccc(-c2nc(C3CCN(C)CC3)sc2-c2ccnc(NC(=O)c3ccccc3)c2)c1` [L 44, N-[4 [4 (3 methylphenyl)-2 (1 methylpiperidin-4 yl)-1,3-thiazol-5 yl]-2 pyridyl]benzamide], for which the melting point fell in the range of 151 to 152 °C.

`Cc1cccc(-c2nc(N(C)C(=O)c3cccnc3)sc2-c2ccnc(NC3CCCC3)c2)c1` [L 65-3, N-methyl-N-[5 (2-cyclopentylamino-4 pyridyl)-4 (3 methylphenyl)-1,3 thiazol-2-yl]nicotinamide]: the melting point fell in the range of 150 to 151 °C.

Regarding `Cc1cccc(-c2nc(N(C)C(=O)c3cccnc3)sc2-c2ccnc(NC3CCCCC3)c2)c1` [L 65-4, N-methyl-N-[5 (2-cyclohexylamino-4 pyridyl)-4 (3 methylphenyl)-1,3 thiazol-2-yl]nicotinamide], the melting point is 135 to 136 °C.

`Cc1cccc(-c2nc(N(C)C(=O)c3ccc(C)nc3)sc2-c2ccnc(NC3CCCC3)c2)c1` [L 67-2, N-[5 (2 cyclopentylamino-4-pyridyl)-4 (3 methylphenyl)-1,3 thiazol-2 yl]-N, 6-dimethylnicotinamide] came in with a melting point of 176 to 177 °C.

`Cc1nc(-c2cccc(Cl)c2)c(-c2ccnc(NC(=O)Cc3ccccc3)c2)s1` [L 68-3, N-[4 [4 (3 chlorophenyl)-2-methyl-1,3 thiazol-5 yl]-2 pyridyl]phenylacetamide]: the melting point lay within 99 to 101 °C.

`Cc1cccc(-c2nc(C)sc2-c2ccnc(NC(=O)Cc3ccccc3)c2)c1` [L 68-5, N-[4 [2 methyl-4 (3-methylphenyl)-1,3 thiazol-5 yl]-2 pyridyl]phenylacetamide] registered a melting point of 114 to 115 °C.

In the case of `Cc1cccc(-c2ncsc2-c2ccnc(NC(=O)Cc3ccccc3)c2)c1` [L 68-6, N-[4 [4 (3 methylphenyl)-1,3 thiazol-5 yl]-2 pyridyl]phenylacetamide], the melting point lay in the range of 135 to 136 °C.

In turn, `CCc1nc(-c2ccc(F)cc2)c(-c2ccnc(NC(=O)Cc3ccccc3)c2)s1` [L 68-7, N-[4 [2 ethyl-4 (4-fluorophenyl)-1,3 thiazol-5 yl]-2 pyridyl]phenylacetamide] returned a melting point of 178 to 179 °C.

In turn, `CCc1nc(-c2ccc(C)cc2)c(-c2ccnc(NC(=O)Cc3ccccc3)c2)s1` [L 68-8, N-[4 [2 ethyl-4 (4-methylphenyl)-1,3 thiazol-5 yl]-2 pyridyl]phenylacetamide] came in with a melting point of 128 to 129 °C.

As to `CCc1nc(-c2ccccc2)c(-c2ccnc(NC(=O)Cc3ccccc3)c2)s1` [L 68-9, N-[4 (2 ethyl-4 phenyl-1,3-thiazol-5 yl)-2 pyridyl]phenylacetamide], the melting point was 162 to 163 °C.

In turn, `CCc1nc(-c2cccc(OC)c2)c(-c2ccnc(NC(=O)Cc3ccccc3)c2)s1` [L 68-10, N-[4 [2 ethyl-4 (3-methoxyphenyl)-1,3 thiazol-5 yl]-2 pyridyl)phenylacetamide] gave a melting point of 128 to 129 °C.

As to `CCc1nc(-c2cccs2)c(-c2ccnc(NC(=O)c3ccccc3)c2)s1` [L 70-4, N-[4 [2 ethyl-4 (2-thienyl)-1,3 thiazol-5 yl]-2 pyridyl]benzamide], the melting point was in the range of 116 to 117 °C.

In turn, `CC(=O)Nc1nc(-c2cc(C)cc(C)c2)c(-c2ccncc2)s1` [Reference Example A 23-128, N-[4-(3,5-dimethylphenyl)-5-(4-pyridyl)-1,3-thiazol-2-yl]acetamide] returned a melting point of 284 to 286 °C.

With `Cc1cc(C)cc(-c2nc(NC(=O)c3ccncc3)sc2-c2ccncc2)c1` [Reference Example A 23-200, N-[4-(3,5-dimethylphenyl)-5-(4-pyridyl)-1,3-thiazol-2-yl]isonicotinamide], the melting point was in the range of 302 to 304 °C.

These data come from patent US20050080113A1, “Medicinal compositions” (priority 2001, published 2005).
